# Activity calls are given as the source filed them.
# Tests used:
# [1] = growth suppression of PTEN-null colon cells, dose response, cell-based, HCT116 PTEN knockout (AID 1047); assay type: functional;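 further: HCT116 colon tumor cells with PTEN knocked out; cells exposed to compound for 60 hours before readout; potency for loss of cell viability measured by luminescence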
# [2] = growth suppression of beta-catenin-knockout colon cells, dose response, cell-based, HCT116, human colon tumor (AID 1045); assay type: functional;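 further: HCT116 colon tumor cells with beta catenin knocked out; cells exposed to compound for 60 hours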
# [3] = THP-1 cell cytotoxicity, dose response, cytotoxicity control for non-replicating M. tuberculosis project (AID 489025); assay type: functional
# [4] = Luminescence Cell-Based Dose Retest to Confirm Inhibitors of Cancer Stem Cells. [Related pubchem assays (depositor defined):AID2717, AID2721]; assay type: functional; conditions: Homo sapiens
# [5] = cells; assay type: functional
# [6] = target: Voltage-dependent T-type calcium channel subunit alpha-1H (Homo sapiens, UniProt O95180); assay type: functional;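 further: channel activity triggered by adding a high calcium stimulation buffer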
# Sequence of Voltage-dependent T-type calcium channel subunit alpha-1H (O95180 whole entry): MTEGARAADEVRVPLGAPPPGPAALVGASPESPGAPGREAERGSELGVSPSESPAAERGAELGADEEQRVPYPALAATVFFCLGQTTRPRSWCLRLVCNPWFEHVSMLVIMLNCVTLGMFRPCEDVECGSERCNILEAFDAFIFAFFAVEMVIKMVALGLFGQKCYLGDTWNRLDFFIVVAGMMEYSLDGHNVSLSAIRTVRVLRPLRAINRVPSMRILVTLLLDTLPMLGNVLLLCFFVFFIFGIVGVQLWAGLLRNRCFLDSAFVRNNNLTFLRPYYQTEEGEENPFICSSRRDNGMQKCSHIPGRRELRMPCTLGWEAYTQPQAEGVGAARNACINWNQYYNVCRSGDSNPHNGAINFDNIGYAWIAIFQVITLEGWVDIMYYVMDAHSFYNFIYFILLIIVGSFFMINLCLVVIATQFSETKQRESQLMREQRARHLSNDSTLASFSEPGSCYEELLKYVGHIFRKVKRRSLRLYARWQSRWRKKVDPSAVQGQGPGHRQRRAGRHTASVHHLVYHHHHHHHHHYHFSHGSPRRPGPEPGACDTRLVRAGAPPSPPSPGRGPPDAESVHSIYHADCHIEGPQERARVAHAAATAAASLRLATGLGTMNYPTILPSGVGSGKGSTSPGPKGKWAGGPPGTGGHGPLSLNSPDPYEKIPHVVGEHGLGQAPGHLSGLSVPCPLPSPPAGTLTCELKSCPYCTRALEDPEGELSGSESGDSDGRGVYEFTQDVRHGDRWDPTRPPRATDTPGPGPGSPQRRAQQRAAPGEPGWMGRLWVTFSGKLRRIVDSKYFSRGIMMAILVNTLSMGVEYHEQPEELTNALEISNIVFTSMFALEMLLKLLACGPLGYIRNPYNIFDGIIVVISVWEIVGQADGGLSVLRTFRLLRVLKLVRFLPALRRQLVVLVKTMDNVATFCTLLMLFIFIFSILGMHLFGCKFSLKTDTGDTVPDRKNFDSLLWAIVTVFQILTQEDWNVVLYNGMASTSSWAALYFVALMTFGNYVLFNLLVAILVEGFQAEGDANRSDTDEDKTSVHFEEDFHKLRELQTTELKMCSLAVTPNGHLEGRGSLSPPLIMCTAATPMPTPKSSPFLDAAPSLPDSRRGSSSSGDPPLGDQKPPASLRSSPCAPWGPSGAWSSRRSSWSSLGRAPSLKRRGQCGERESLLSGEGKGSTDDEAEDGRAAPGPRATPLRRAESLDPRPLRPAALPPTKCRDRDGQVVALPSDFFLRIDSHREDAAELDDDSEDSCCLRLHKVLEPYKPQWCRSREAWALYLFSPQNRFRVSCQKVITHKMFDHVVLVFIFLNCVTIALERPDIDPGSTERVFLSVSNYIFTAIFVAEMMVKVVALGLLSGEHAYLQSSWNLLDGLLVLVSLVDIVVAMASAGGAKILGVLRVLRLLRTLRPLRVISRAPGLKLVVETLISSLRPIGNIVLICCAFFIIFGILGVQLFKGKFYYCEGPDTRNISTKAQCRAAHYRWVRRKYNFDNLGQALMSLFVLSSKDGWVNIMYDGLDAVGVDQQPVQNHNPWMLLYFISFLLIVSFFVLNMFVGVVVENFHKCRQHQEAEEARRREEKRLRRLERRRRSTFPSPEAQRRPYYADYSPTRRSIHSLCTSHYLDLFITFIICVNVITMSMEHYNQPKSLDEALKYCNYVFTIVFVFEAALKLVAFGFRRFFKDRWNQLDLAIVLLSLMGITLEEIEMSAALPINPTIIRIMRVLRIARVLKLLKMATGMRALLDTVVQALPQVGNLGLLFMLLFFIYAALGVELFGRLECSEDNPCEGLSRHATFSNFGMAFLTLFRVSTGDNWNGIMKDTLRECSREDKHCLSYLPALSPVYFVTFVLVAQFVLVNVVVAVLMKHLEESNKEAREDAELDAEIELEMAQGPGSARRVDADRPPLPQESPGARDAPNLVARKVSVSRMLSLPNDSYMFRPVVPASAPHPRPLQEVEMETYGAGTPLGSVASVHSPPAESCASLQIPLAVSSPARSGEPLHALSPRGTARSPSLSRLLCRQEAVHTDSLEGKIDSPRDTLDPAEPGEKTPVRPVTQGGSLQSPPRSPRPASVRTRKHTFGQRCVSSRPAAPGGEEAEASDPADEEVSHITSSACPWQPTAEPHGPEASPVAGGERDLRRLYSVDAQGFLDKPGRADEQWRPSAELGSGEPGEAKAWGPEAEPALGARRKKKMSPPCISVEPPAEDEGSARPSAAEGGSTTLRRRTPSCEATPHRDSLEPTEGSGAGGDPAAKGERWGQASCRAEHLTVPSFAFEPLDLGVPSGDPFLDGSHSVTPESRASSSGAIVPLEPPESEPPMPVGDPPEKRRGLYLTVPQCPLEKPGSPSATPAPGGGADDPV
# [7] = target: T1, Ubiquitin-conjugating enzyme E2 N (Homo sapiens, UniProt P61088); assay type: functional;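 further: Dose-response confirmation in a TR-FRET assay detecting UBC13-driven polyubiquitin chain formation, inhibition measured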
# T1 sequence (P61088 whole entry): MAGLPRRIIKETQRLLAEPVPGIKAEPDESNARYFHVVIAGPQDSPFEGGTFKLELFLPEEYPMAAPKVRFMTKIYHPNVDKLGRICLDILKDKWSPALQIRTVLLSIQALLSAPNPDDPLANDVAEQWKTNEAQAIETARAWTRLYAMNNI
# [8] = target: T2, Caspase-3 (Homo sapiens, UniProt P42574); assay type: functional;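 further: Dose-response selectivity test against caspase-3 for candidate inhibitors of sentrin-specific proteases (SENPs)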
# T2 sequence (P42574 whole entry): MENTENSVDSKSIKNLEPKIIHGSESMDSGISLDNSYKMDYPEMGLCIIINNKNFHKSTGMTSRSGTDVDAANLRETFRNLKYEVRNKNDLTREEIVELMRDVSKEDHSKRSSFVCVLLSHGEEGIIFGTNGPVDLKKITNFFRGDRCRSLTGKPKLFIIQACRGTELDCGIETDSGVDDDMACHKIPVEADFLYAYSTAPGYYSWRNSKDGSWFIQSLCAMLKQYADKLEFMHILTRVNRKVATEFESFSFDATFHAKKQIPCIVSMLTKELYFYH
# [9] = target: T3, Sentrin-specific protease 7 (Homo sapiens, UniProt Q9BQF6); assay type: functional;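 further: Luminescence-based dose-response confirmation of ultra-high-throughput screening hits, measuring inhibition of SENP7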
# T3 sequence (Q9BQF6 whole entry): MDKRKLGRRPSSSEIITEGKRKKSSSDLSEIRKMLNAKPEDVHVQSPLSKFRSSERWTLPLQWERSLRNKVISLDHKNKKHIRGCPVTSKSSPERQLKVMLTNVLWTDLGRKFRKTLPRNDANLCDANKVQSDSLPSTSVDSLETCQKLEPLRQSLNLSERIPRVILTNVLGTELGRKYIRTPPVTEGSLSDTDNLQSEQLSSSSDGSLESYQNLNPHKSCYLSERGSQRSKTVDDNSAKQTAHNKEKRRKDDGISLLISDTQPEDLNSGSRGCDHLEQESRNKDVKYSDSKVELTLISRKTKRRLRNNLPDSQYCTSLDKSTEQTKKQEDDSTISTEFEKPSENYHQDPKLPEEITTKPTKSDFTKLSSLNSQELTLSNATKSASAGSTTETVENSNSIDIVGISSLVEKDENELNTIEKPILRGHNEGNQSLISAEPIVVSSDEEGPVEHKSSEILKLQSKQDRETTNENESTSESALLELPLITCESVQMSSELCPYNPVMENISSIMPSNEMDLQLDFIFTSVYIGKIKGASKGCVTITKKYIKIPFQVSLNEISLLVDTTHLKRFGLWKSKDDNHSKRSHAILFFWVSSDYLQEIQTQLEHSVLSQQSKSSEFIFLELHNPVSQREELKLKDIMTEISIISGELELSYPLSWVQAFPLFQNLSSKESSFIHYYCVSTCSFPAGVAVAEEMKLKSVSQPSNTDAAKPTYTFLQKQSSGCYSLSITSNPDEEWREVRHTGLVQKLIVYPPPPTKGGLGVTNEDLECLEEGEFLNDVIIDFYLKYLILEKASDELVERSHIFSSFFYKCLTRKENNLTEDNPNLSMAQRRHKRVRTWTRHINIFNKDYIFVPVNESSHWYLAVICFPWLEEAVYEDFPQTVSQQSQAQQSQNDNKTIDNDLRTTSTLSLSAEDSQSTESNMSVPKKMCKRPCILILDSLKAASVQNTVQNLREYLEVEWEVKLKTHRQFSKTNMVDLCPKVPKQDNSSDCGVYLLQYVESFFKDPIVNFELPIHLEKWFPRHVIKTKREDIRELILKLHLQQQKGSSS
# [10] = target: T4, Sentrin-specific protease 6 (Homo sapiens, UniProt Q9GZR1); assay type: functional;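 further: Luminescence-based dose-response confirmatory assay of SENP6 inhibition, following up an ultra-high-throughput screen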
# T4 sequence (Q9GZR1 whole entry): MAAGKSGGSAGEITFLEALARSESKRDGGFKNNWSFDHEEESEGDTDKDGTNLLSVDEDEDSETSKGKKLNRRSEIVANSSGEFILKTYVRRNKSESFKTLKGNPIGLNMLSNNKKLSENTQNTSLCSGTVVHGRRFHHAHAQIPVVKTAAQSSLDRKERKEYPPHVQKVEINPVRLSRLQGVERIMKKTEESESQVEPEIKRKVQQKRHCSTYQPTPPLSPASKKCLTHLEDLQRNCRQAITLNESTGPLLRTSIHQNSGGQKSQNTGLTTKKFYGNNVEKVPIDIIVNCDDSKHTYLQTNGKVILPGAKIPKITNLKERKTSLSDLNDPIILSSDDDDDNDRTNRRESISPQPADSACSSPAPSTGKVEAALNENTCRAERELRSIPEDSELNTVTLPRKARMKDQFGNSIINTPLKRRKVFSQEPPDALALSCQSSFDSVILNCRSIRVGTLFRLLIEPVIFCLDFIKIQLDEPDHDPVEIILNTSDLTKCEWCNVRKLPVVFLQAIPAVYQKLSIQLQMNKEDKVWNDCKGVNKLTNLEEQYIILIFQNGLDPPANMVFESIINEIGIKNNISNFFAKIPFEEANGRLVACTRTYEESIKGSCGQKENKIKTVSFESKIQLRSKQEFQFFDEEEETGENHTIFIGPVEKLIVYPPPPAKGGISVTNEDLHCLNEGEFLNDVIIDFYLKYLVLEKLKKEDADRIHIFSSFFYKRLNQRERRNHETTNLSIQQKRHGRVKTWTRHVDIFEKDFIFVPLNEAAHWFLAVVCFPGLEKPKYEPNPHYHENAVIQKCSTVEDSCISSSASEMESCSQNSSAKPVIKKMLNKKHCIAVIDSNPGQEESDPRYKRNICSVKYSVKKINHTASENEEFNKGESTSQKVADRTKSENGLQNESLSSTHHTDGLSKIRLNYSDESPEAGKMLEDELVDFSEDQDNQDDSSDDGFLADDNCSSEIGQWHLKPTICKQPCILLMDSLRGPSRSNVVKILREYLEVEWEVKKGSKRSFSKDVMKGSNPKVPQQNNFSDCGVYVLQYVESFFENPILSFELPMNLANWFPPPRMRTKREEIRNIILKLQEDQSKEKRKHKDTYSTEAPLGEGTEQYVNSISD
# [11] = target: T5, Sentrin-specific protease 8 (Homo sapiens, UniProt Q96LD8); assay type: functional;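 further: luminescence read-out of SENP8 inhibition, dose-response confirmation following an ultra-high-throughput screen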
# T5 sequence (Q96LD8 whole entry): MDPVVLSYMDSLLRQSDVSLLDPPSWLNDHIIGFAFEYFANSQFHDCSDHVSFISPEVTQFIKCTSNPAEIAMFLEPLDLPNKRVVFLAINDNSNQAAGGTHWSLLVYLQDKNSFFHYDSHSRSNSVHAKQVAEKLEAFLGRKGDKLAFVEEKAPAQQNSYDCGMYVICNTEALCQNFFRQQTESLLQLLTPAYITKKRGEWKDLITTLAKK
# [12] = inhibitors of HIV Env-driven cell fusion, dose response, cherry-pick (AID 652057); assay type: functional, cell-based
# [13] = ZM109 Env clade C HIV-1 fusion inhibitors, dose response, HeLa effector, CEM target cells, luciferase, cherry-pick (AID 652058); assay type: functional, cell-based
# [14] = inhibitors of clade B AD8 Env fusion, dose response, cell-based, cherry-pick (AID 652062); assay type: functional;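 further: luciferase signal from cell-cell fusion driven by HIV-1 clade B AD8 Env; potency is for inhibitors of fusion seen as a drop in luminescence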
# [15] = intracellular Trypanosoma cruzi inhibitors in host cells – cell-based, plate reader, cherry-pick samples, set 3, dose response (AID 651818); assay type: functional;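 further: compounds incubated with infected cells for about four days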
# [16] = target: Nonstructural protein 1 (Influenza A virus, UniProt Q194T2); assay type: functional, Influenza A virus (A/California/07/2009(H1N1))
# Sequence of Nonstructural protein 1 (Q194T2 whole entry): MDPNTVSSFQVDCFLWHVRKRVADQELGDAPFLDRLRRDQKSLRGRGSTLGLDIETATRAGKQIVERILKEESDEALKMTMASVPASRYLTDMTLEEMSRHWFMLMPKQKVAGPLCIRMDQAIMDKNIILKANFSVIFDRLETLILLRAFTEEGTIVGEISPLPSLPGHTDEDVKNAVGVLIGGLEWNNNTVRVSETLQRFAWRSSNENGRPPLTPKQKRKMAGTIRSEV
# [17] = target: T6, Rac GTPase-activating protein 1 (Homo sapiens, UniProt Q9H0H5); experiment: MgcRacGAP GTPase-activating activity inhibitors, confirmation, biochemical, ADP Hunter fluorescence, primary and confirmatory (AID 624330); assay type: functional
# T6 sequence (Q9H0H5 whole entry): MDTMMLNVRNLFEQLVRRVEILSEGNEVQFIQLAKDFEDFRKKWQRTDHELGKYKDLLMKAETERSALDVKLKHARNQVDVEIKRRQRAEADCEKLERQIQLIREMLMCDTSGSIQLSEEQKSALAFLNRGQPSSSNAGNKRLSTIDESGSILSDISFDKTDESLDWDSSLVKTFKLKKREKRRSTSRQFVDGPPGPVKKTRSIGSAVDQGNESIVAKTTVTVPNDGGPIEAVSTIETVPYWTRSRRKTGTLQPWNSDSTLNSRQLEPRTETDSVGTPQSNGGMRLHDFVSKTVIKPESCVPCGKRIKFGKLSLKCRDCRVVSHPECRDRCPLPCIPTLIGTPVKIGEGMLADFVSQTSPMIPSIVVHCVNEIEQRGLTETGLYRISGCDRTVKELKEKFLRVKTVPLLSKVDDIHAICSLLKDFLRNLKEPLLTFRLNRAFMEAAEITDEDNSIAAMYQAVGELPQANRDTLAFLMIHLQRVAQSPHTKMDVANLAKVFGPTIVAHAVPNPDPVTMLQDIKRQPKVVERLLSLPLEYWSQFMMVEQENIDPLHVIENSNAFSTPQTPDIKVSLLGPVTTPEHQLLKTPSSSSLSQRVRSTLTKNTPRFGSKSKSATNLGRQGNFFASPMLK
Compound,IC50 [8],IC50 [9],IC50 [10],IC50 [11],AC50 [15],other results
CCOC(=O)c1c(NC(=O)C2COc3ccccc3O2)sc2c1CC(C)(C)NC2(C)C (stereo not drawn),,,,,,EC50 [1]: 10.6 µM (active); EC50 [2]: 10.3 µM (active); CC50 [3]: 25.3 µM (active); AC50 [4]: 8.55 µM (active); IC50 [5]: 36.2 µM (active)
Cc1cc(NC(=O)C(C)Oc2ccc(Cl)cc2Cl)n(-c2ccccc2)n1 (stereo not drawn),,,,,,EC50 [6]: 8.91 µM (active)
Cc1cccc(-c2noc(CN(C(=O)c3ccc(Br)o3)C(C)C)n2)c1,,,,,,EC50 [6]: 11.1 µM (active)
O=C(CCCCCN1C(=O)c2cccc3cccc(c23)C1=O)NCCO,,,,,,IC50 [7]: > 20 µM (inactive)
O=[N+]([O-])c1nn(-c2ccc3c(c2)OCCO3)[n+]([O-])c1NCc1ccccc1Cl,> 100 µM (inactive),3.36 µM (active),> 100 µM (inactive),> 100 µM (inactive),,
O=C(NNS(=O)(=O)c1ccc(F)cc1F)C1Cc2c(ccc3ccccc23)O1 (stereo not drawn),,,,,,AC50 [12]: 8.04 µM (active); AC50 [13]: 37.5 µM (active); AC50 [14]: 24.2 µM (active)
C[C@H](CO)N1C[C@H](C)[C@H](CN(C)Cc2ccc(Cl)c(Cl)c2)Oc2c(NC(=O)c3ccc(-c4nccs4)cc3)cccc2C1=O,,,,,4.5 µM (active),
C[C@@H]1CN([C@@H](C)CO)C(=O)c2cccc(NC(=O)c3nc4ccccc4s3)c2O[C@H]1CN(C)Cc1ccc2c(c1)OCO2,,,,,1.78 µM (active),
CN(c1ccccc1)c1ccc(/C=N/N2CCOCC2)cc1,18.8 µM (active),8.89 µM (active),27.3 µM (active),39.5 µM (active),,IC50 [16]: > 100 µM (active); IC50 [17]: 37.2 µM (active)
O=C(Nc1ccccc1Cl)Nc1cccc2cccnc12,29.4 µM (active),7.41 µM (active),> 100 µM (inactive),6.08 µM (active),,
C[C@@H]1CN([C@H](C)CO)C(=O)Cc2cc(NS(=O)(=O)c3ccccc3)ccc2O[C@@H]1CN(C)Cc1ccc(Cl)c(Cl)c1,,,,,3.52 µM (active),
COc1ccc(NC(=O)Nc2ccc3c(c2)C(=O)N([C@H](C)CO)C[C@H](C)[C@@H](CN(C)CC2CCCCC2)OCCCC[C@@H](C)O3)cc1,,,,,3.41 µM (active),
Clc1ccc(OCc2nc(-c3ccncc3)no2)c(Cl)c1,38.8 µM (active),9.12 µM (active),28.8 µM (active),36.6 µM (active),,
C[C@H]1CN([C@@H](C)CO)C(=O)c2cccc(NC(=O)c3ccc(-c4nccs4)cc3)c2O[C@H]1CN(C)Cc1ccc(C(=O)Nc2ccccc2N)cc1,,,,,1.49 µM (active),
CCc1ccc(-c2csc(NC(=O)C3=COCCO3)n2)cc1,38.6 µM (active),6.81 µM (active),27 µM (active),48.5 µM (active),,
